This note sets out measurements from ChEMBL document CHEMBL1201862, “PubChem BioAssay data set” (2004).

Active and inactive are the calls of the source.

Assay [1] in a line: inhibition of ADAM10 peptide cleavage – biochemical, FRET peptide substrate, recombinant human ADAM10, selectivity assay for ADAM17 exosite inhibitor project, dose response (AID 743259).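 Further: ADAM10 enzyme cleaving a FRET peptide substrate.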
For assay [2], the target named is Disintegrin and metalloproteinase domain-containing protein 17 (Homo sapiens, UniProt P78536). Put plainly: exosite inhibitors of ADAM17, dose response, biochemical (AID 743260).
Disintegrin and metalloproteinase domain-containing protein 17, sequence (P78536 whole entry, the tested form may be a part): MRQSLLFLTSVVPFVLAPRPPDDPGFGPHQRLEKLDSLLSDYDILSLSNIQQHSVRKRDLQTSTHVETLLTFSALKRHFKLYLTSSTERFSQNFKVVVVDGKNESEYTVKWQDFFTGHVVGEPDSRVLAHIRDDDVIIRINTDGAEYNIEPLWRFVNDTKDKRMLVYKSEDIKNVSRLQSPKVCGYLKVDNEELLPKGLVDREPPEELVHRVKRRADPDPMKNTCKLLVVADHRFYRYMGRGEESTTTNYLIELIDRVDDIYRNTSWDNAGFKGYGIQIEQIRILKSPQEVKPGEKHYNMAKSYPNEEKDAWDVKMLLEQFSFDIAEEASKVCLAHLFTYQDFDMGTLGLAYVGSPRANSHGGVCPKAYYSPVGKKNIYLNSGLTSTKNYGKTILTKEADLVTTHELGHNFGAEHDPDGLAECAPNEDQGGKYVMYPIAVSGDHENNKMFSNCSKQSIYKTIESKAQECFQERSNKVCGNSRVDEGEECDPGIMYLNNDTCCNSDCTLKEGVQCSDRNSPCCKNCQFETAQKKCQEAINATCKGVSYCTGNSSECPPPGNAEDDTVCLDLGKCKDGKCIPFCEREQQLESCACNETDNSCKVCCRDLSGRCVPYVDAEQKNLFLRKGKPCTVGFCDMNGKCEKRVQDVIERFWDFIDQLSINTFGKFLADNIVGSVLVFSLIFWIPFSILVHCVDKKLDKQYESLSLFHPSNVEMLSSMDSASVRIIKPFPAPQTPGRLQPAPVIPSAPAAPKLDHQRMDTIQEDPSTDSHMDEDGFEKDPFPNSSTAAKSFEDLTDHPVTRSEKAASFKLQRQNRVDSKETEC
Assay [3] deals with T1, Replicative DNA helicase DnaB (Mycobacterium tuberculosis, UniProt P9WMR3).
T1 sequence (P9WMR3 whole entry): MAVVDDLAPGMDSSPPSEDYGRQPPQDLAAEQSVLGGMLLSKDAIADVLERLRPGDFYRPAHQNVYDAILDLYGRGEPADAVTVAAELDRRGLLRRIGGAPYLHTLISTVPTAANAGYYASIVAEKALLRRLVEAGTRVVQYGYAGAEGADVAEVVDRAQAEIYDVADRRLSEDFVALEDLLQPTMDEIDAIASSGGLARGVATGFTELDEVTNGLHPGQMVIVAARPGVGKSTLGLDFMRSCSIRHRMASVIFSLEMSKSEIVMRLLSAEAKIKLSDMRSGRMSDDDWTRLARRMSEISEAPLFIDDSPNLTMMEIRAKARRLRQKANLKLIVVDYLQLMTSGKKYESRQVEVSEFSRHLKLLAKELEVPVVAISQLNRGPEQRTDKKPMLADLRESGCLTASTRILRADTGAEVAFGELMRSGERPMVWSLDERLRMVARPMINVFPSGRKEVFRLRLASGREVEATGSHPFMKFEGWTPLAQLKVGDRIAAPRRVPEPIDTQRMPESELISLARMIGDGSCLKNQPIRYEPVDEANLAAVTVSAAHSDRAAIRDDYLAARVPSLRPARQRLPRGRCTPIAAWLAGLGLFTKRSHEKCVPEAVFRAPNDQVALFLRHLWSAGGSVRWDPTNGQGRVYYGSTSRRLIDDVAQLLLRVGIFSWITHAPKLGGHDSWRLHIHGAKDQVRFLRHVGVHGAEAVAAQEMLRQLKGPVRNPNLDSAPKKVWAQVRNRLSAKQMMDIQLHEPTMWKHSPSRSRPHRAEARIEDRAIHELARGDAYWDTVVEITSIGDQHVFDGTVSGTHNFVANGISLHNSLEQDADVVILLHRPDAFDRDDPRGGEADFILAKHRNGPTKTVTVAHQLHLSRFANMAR
As to the kind of experiment: DnaB intein splicing inhibitors, dose response, biochemical, cell-free fluorescence (AID 449749). It is filed as functional.

In assay [4] the target is T2, Sentrin-specific protease 8 (Homo sapiens, UniProt Q96LD8).
T2 sequence (Q96LD8 whole entry): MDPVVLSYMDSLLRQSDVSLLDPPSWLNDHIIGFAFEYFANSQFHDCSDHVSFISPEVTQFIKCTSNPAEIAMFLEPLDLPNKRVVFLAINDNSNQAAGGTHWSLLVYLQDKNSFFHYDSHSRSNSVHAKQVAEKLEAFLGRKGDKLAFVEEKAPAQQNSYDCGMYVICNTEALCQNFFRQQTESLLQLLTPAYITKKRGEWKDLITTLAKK
It is filed as functional.

For assay [5], the target named is T3, Tyrosyl-DNA phosphodiesterase 2 (Homo sapiens, UniProt O95551).
T3 sequence (O95551 whole entry): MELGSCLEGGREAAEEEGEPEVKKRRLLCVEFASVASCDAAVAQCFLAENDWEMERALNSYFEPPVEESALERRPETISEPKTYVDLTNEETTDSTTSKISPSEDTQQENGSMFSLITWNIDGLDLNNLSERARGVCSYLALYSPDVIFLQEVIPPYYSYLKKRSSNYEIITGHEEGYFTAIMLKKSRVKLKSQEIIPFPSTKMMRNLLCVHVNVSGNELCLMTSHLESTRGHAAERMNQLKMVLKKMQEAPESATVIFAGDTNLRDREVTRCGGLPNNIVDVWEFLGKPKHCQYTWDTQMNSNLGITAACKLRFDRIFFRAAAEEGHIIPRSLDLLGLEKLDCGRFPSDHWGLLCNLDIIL
As to the kind of experiment: potency against TDP2 phosphodiesterase activity – biochemical, epi absorbance, IC50, dose response (AID 743297).

The target of assay [6] is T2, Sentrin-specific protease 8. Type of assay: functional. This is another data set of the same source.
Assay [7] has as its target T4, Sentrin-specific protease 6 (Homo sapiens, UniProt Q9GZR1).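 Further: Luminescence-based dose-response confirmatory assay of SENP6 inhibition, following up an ultra-high-throughput screen.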
T4 sequence (Q9GZR1 whole entry): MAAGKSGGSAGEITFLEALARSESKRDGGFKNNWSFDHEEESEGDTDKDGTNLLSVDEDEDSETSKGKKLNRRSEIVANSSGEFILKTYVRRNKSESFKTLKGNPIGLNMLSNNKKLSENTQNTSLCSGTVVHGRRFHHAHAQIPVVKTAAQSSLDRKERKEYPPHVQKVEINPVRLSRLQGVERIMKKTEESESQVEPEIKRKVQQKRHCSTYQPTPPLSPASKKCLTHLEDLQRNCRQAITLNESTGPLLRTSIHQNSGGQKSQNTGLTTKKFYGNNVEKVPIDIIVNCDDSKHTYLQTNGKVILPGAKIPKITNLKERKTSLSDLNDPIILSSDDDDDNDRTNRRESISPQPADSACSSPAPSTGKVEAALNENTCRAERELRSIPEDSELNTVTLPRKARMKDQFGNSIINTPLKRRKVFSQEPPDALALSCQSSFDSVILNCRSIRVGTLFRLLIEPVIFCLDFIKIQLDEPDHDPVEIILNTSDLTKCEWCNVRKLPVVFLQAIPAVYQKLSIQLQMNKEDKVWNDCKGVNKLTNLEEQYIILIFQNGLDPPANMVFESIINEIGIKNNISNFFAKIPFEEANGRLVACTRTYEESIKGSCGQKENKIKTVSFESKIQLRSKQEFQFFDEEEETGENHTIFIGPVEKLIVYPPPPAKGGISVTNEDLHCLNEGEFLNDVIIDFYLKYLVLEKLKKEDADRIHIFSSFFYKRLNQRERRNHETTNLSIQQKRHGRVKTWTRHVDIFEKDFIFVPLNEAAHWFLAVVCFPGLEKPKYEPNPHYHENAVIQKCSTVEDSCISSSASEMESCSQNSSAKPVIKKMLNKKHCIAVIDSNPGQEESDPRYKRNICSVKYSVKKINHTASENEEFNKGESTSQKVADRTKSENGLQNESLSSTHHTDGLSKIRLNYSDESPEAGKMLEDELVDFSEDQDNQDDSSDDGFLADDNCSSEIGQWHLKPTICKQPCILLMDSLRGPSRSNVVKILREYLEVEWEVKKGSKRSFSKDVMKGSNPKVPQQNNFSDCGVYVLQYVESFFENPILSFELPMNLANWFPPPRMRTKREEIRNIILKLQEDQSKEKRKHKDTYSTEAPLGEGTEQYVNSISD
It is filed as functional.

A short description of assay [8]: microbe, parasite or virus in culture. To be noted: Mycobacterium tuberculosis. Type of assay: functional.
Assay [9] deals with INS1. Put plainly: INS-1E survival protection against cytokine death – cell-based, luminescence, retest, dose response (AID 449756).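 Further: cell death triggered by IL-1 beta plus TNF-alpha plus IFN-gamma mixture; protective hits raise ATP signal compared with cytokine alone wells.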 It is filed as functional. The settings on record: Rattus norvegicus.
The target of assay [10] is T5, Heat shock factor protein 1 (Mus musculus, UniProt P38532).
T5 sequence (P38532 whole entry): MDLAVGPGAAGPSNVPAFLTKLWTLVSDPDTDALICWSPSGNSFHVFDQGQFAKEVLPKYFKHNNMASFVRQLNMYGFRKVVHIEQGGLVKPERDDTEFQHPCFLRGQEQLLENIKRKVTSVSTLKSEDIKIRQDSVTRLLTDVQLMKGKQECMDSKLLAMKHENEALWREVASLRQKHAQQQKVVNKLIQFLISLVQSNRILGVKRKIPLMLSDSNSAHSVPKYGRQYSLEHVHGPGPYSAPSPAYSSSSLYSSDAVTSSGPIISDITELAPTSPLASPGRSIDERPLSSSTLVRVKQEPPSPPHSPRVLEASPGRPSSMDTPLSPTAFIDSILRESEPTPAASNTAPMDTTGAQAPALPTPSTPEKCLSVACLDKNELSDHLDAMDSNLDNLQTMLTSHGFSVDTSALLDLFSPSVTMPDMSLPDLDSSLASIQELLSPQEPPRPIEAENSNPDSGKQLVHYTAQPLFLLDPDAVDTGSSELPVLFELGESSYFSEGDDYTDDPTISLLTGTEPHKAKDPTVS
As to the kind of experiment: enhancement of HSF1-driven luciferase signal – cell-based, NIH3T3, luminescence, dose retest, confirmation (AID 435004).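 Further: stress induced by proteasome inhibitor MG132 added 30 min after compound; luciferase reporter driven by HSF1 response element in NIH3T3 cells; actives raise luminescence as potentiators of the MG132 stress response.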 Type of assay: functional.

Assay [11] has as its target T2, Sentrin-specific protease 8. Type of assay: functional. The source holds these as a separate data set.
The target of assay [12] is T6, Sentrin-specific protease 7 (Homo sapiens, UniProt Q9BQF6).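 Further: Luminescence-based dose-response confirmation of ultra-high-throughput screening hits, measuring inhibition of SENP7.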
T6 sequence (Q9BQF6 whole entry): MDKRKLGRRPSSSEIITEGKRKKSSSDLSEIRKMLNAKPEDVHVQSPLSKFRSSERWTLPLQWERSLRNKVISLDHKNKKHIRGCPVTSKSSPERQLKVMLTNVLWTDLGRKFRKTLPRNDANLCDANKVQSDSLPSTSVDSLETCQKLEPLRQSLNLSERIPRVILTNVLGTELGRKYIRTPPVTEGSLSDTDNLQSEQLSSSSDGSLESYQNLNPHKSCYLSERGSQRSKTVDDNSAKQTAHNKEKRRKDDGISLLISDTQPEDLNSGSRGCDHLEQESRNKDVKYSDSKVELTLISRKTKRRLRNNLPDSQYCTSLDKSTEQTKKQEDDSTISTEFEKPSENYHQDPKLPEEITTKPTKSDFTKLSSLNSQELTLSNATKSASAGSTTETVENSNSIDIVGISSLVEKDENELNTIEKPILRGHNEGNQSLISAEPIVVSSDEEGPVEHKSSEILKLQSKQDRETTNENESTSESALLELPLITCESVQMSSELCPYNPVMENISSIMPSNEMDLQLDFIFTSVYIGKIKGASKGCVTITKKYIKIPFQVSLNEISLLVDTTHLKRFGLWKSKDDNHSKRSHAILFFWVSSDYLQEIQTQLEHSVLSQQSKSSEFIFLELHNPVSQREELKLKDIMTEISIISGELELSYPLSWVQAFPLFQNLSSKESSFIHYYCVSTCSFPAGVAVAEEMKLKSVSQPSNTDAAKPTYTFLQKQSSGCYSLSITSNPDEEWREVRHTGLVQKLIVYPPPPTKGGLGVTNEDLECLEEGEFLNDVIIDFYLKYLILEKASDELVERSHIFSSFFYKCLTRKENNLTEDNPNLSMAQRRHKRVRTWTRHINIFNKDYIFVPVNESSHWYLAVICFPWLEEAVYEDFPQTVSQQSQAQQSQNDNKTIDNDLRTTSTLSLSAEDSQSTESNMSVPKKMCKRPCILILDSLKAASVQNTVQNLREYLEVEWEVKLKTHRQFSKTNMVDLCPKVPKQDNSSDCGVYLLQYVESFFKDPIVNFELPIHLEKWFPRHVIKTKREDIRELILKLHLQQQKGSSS
Type of assay: functional.

In assay [13] the target is T7, Caspase-3 (Homo sapiens, UniProt P42574).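 Further: Dose-response selectivity test against caspase-3 for candidate inhibitors of sentrin-specific proteases (SENPs).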
T7 sequence (P42574 whole entry): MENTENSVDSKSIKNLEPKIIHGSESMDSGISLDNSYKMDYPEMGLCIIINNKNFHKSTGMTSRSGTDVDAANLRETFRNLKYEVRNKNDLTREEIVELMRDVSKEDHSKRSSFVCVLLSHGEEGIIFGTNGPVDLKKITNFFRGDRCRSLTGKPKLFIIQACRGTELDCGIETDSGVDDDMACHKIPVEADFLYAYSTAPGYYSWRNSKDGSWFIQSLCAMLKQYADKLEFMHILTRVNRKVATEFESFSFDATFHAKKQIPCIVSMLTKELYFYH
Type of assay: functional.

The target of assay [14] is T8, Caspase-6 (Homo sapiens, UniProt P55212).
T8 sequence (P55212 whole entry): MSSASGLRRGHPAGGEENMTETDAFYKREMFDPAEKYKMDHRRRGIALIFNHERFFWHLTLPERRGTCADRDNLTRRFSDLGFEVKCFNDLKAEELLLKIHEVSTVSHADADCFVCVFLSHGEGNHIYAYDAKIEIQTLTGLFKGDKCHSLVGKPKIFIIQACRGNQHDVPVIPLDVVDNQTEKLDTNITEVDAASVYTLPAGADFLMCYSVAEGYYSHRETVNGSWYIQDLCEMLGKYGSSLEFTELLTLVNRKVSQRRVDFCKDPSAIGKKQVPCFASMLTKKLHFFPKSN
Put plainly: inhibition of CASP6 peptide cleavage – biochemical, VEID-R110 fluorescence, cherry-pick, dose response (AID 720632).

The target in assay [15] is Endoplasmic reticulum aminopeptidase 1 (Homo sapiens, UniProt Q9NZ08). Put plainly: inhibition of human ERAP1 enzyme activity – biochemical, cherry-pick, set 2, plate reader, dose response (AID 743314).
Endoplasmic reticulum aminopeptidase 1, sequence (Q9NZ08 whole entry): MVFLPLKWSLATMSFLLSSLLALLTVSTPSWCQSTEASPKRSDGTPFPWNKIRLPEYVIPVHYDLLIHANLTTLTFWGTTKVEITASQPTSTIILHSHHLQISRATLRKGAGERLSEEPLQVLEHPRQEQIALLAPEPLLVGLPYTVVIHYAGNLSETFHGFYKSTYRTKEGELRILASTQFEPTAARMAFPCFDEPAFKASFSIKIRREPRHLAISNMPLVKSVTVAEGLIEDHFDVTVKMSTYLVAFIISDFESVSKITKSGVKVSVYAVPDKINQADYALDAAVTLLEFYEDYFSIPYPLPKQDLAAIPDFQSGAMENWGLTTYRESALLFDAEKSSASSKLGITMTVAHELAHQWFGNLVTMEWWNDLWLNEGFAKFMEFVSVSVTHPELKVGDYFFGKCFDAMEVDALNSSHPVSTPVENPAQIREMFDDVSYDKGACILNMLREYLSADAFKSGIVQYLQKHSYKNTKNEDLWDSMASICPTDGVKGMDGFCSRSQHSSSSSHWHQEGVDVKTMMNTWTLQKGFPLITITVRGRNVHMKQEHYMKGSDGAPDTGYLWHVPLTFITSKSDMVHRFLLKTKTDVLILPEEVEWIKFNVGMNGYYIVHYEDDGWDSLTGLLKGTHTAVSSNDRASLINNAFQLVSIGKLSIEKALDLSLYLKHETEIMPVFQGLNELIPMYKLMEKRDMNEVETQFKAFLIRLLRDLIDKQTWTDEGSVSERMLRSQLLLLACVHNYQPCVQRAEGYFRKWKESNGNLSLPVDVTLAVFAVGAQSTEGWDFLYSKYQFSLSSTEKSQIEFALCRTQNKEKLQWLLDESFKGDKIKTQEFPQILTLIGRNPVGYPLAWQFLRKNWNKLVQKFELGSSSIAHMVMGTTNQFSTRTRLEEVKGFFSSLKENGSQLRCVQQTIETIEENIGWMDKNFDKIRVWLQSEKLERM

`Clc1ccc(OCCOCCOc2cccc3cccnc23)c(Br)c1`: the IC50 in assay [1] and in [2] was > 69.5 µM (inactive) throughout.
As for `Nc1ccc(N2CCOCC2)c2nonc12`, the AC50 in [3] is 18.8 µM (active). In addition, the figures for the IC50 in assay [4], in assay [5] and in [6] were 2.98 µM (active), > 128 µM (inactive) and 3.67 µM (active), respectively.
Consider `S=C(Nc1ccc(Cl)cc1)Nc1cccc2cnccc12`, for which the IC50 in assay [5] was 130 µM (inactive); in [7] it was 2.87 µM (active); in [11], 5.49 µM (active); in [12] it was 6.24 µM (active); in assay [13], 11.7 µM (active). Moreover, in [8], the CC50 is > 40 µM (active). In addition, in [9], the AC50 was > 260 µM (inactive). Further, the EC50 in [10] is > 260 µM (inactive).
With `Cc1ccc(NC(=O)c2cc(S(=O)(=O)NCC3CCCO3)ccc2F)cc1` (centres undefined), in [14], the AC50 was 45.9 µM (active).
On to `CN1[C@@H]2Cn3c(ccc(/C=C/c4ccccc4)c3=O)[C@H]1[C@@H](C(=O)NC1CCCC1)[C@@H]2CO`, for which, in [15], the AC50 was 9.03 µM (active).
`CC(=O)N1[C@@H]2c3ccc(/C=C/c4ccccc4)c(=O)n3C[C@H]1[C@H](CO)[C@H]2C(=O)N(C)C`: the concentration at half-maximal activity (AC50) in assay [15] is 4.5 µM (active).
In the case of `COc1ccc(NC(C)C(=O)N/N=C/c2ccccc2OCc2ccc(Br)cc2)cc1` (centres undefined), the IC50 in [1] and in assay [2] was > 69.5 µM (inactive) each time.
